The structures appear in SMILES notation.

Holding throughout (type): in vivo
For one data set, the system named is dd mice. The experiment in a line: acute toxicity, oral, mice. The note with it: 5 g/kg orally, five dd mice. The text has this: (§1) In order to examine the acute toxicity of cycloartenol ferulate, it was orally administered to five dd mice and five SD rats.
The test system of data set [1] is male SD rats. On the procedure:
In order to examine the effect of decreasing lipids, male SD rats aged four weeks were classified into the following four groups: i.e. (1) an ordinary diet group (control); (2) a cholesterol diet group; (3) a cholesterol diet group to which cycloartenol ferulate was administered; and (4) a cholesterol diet group to which γ-oryzanol was administered.
Cycloartenol ferulate or γ-oryzanol was orally administered for 12 days repeatedly with the use of a metal probe. Each compound was administered in doses of 100 mg/kg, 500 mg/kg and 1000 mg/kg per animal a day. After each administration, blood of the animal was collected to determine free cholesterol (FC), triglyceride (TG) and phospholipids (PL) contained therein.

A further data set deals with SD rats. Description: acute toxicity, oral, rats. The note with it: 5 g/kg orally, five SD rats.
From the text: as §1

The subject of data set [2] is male SD rats. The experiment in a line: hyperlipemia induced by Triton WR-1339. Particulars: 10 mg/kg intravenously with 300 mg/kg Triton WR-1339, blood 43 hours after injection. The method, then:
In order to examine the mechanism of the lipid decreasing effect of cycloartenol ferulate the effect of the same on hyperlipemia induced by a surfactant (Triton WR-1339) was confirmed.
The test was conducted with male SD rats aged six weeks. 300 mg/kg of Triton WR-1339 was intravenously injected to each rat of the first group to thereby induce hyperlipemia (Triton control group), while 10 mg/kg of cycloartenol ferulate or 10 mg/kg of γ-oryzanol was intravenously injected simultaneously with 300 mg/kg of Triton WR-1339 to each rat of other groups, thus examining the effect of decreasing lipids. Blood of each animal was collected 43 hours after the intravenous injection.

With `COc1cc(/C=C/C(=O)O[C@H]2CC[C@]34C[C@]35CC[C@]3(C)[C@@H]([C@H](C)CCC=C(C)C)CC[C@@]3(C)[C@@H]5CC[C@H]4C2(C)C)ccc1O` [cycloartenol ferulate], the acute toxicity result in the data set with dd mice and in the data set on SD rats was “no animal died nor showed any toxic symptom” each time. The “free cholesterol (FC)” value in the data set with male SD rats [1] (blood, cholesterol diet, oral, 12 days, 100, 500 and 1000 mg/kg a day, vs cholesterol diet group (Fig. 5)) is “lower than that of the cholesterol diet group to a statistically significant extent”. Besides, the “triglyceride (TG)” value with male SD rats [1] (blood, cholesterol diet, oral, 12 days, 100, 500 and 1000 mg/kg a day, vs cholesterol diet group (Fig. 6)) was “lower than that of the cholesterol diet group to a statistically significant extent”. Also, the “phospholipids (PL)” value in the data set on male SD rats [1] (blood, cholesterol diet, oral, 12 days, 100, 500 and 1000 mg/kg a day, vs cholesterol diet group (Fig. 7)) is reported as “lower than that of the cholesterol diet group to a statistically significant extent”. Moreover, the body weight gain result in the data set on male SD rats [1] (cholesterol diet suppresses body weight gain, oral, 12 days (Fig. 12)) is given as “accelerated the growth of animals”. Further, the arteriosclerosis index entry with male SD rats [1] (cholesterol diet, oral, 12 days (Fig. 9)) is “remarkably lowers this index”. The “HDL-cholesterol (HDLC)” value with male SD rats [1] (cholesterol diet, oral, 12 days, vs cholesterol diet group (Fig. 8)) is “increase HDLC to a statistically significant extent”. For the same molecule, the GOT result in the data set on male SD rats [1] (rat, in vivo, po) is “no changes”. Also, the GPT entry in the data set on male SD rats [1] (rat, in vivo, po) is “no changes”. Also, in the data set on male SD rats [2] (vs Triton control group and γ-oryzanol group (Fig. 13)), the TC entry was “significant decreases”. For the same molecule, the FC entry with male SD rats [2] (vs Triton control group and γ-oryzanol group (Fig. 14)) is “significant decreases”. The TG result in the data set with male SD rats [2] (vs Triton control group and γ-oryzanol group (Fig. 15)) is given as “significant decreases”.

For the origin of these results see patent EP0222912A1, “AGENT FOR TREATING ARTERIOSCLEROSIS” (ZERIA SHINYAKU KOGYO KABUSHIKI KAISHA, priority 1984, dated 1985).
